Laboratory results from patent publication EP4755880A1, “SUBSTITUTED NITROGEN-CONTAINING BICYCLIC COMPOUND AND USE THEREOF” (Sunshine Lake Pharma Co., Ltd., priority 2023, dated 2025).
pIC50: −log10 of the molar value.

Tests used:
PARP2 = PARP2 (Homo sapiens, UniProt Q9UGN5); test: biochemical;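 further: PARP2 enzyme ELISA on histone-coated plates, Strep-HRP detection with chemiluminescence read-out, 10 min compound preincubation with enzyme, inhibition scaled between Max and Min signal controls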
Procedure: (§1) Experimental Objective: To evaluate the inhibitory effect of the compounds of the present invention on the enzyme activities of PARP1 and PARP2 using ELISA.
(§2) • 1. histone-coated 384-well plates was prepared: 25 µL of histone solution was added to each well and incubated overnight at 4 °C. • 2. PBST buffer, blocking buffer (PBS buffer with 5% BSA and 0.05% Tween-20 added) and detection buffer (20 mM HEPES pH 7.5 + 100 mM NaCl + 2 mM DTT + 0.002% Tween-20 + 0.1% BSA) were prepared. • 3. The histone-coated 3 84-well plate was washed three times with PBST buffer, blocked at room temperature with 50 µL blocking buffer for 1 hour, and then washed three times with PBST buffer. • 4. Test compounds were prepared as 2000-fold stock solutions in DMSO. 50 nL of the stock solution was mixed with 19.95 µL detection buffer, and 5 µL of the gradient-diluted test compound was transferred to each well. • 5. Enzymatic reaction (PARP1): PARP1 & DNA mix was pre-incubated at 25 °C for 10 minutes. 10 µL of the PARP1 & DNA mix was added to each well and incubated with the test compound at room temperature for 10 minutes. […] Finally, the 384-well plate was washed three times with PBST buffer. Enzymatic reaction (PARP2): PARP2 was pre-incubated at 25 °C for 10 minutes. 10 µL of PARP2 was added to each well and incubated with the test compound at room temperature for 10 minutes. […] Finally, the 384-well plate was washed three times with PBST buffer. • 6. Detection (PARP1): 20 µL of anti-Poly/Mono-ADP Ribose Rabbit mAb was added and incubated at room temperature for 1.5 hours, followed by three washes of the 384-well plate with PBST buffer. Then, 20 µL of diluted anti-rabbit IgG, HRP-linked Antibody (diluted 1:2000 in blocking buffer) was added and incubated at room temperature for 1 hour. After washing the plate three times with PBST buffer, 25 µL of a 1:1 mixture of Femto-ECL Substrate A and Femto-ECL Substrate B was added. Detection (PARP2): 25 µL of Strep-HRP was added and incubated at room temperature for 1 hour, followed by three washes of the 384-well plate with PBS buffer. Then, 25 µL of a 1:1 mixture of Femto-ECL Substrate A and Femto-ECL Substrate B was added. • 7. Chemiluminescence intensity was measured using an Envision multimode microplate reader. • 8. Data Processing
(§3) The inhibition rate was calculated in Excel using formula (1). inh% = (Max−Signal)/(Max−Min)*100 [formula]
(§4) The IC50 value was obtained by fitting the data in XL-Fit using formula (2). Y = bottom + (top−bottom)/(1+(IC50/X)*HillSlope); [formula] wherein Y is the inhibition percentage and X is the compound concentration.

PARP1 = PARP1 (Homo sapiens, UniProt P09874); test: Inhibition of PARP1 enzyme activity (ELISA, chemiluminescence); format: biochemical; conditions: for IC50: ELISA, histone-coated plate, NAD+, 60 min at 25 °C; for Selectivity PARP2/PARP1: ratio of PARP2 IC50 to PARP1 IC50
Procedure: as §1, §2, §3, §4

DLD-1 BRCA2(-/-) cells = test: Inhibition of proliferation of DLD-1 BRCA2(-/-) cells (CTG method); format: cell-based; conditions: Homo sapiens, DLD-1, 168 h; 7 days incubation, CellTiter-Glo
Procedure: • 1. Cell Pretreatment: DLD-1 BRCA2(-/-) cells were cultured in growth medium 1640 + 10% FBS (fetal bovine serum) + 1% Penicillin-Streptomycin. Cells in the logarithmic growth phase were digested with trypsin-EDTA, centrifuged, and resuspended. DLD-1 BRCA2(-/-) cells were seeded at 1,000 cells/well in sterile 96-well opaque plates, 75 µl per well. After seeding, the cell culture plates were incubated overnight at 37 °C with 5% CO2 before adhesion, followed by treatment with the test compounds. • 2. DLD-1 BRCA2(-/-) Cell Drug Treatment: The test compound was prepared as a 10 mM stock solution using DMSO. The test compound was then diluted to a 4× working solution using growth medium (starting at 40 µM, with 9 4-fold dilutions). 25 µl of 4× working solution was added to each well to achieve final concentrations of 10000, 2500, 625, 156, 39, 9.7, 2.4, 0.61, and 0.152 nM, respectively. Blank control wells containing the same DMSO concentration were also included, with three replicates for each concentration. After adding the test compound, the cells were incubated at 37 °C with 5% CO2 for 7 days. • 3. After incubation, 100 µl of CellTiter-Glo® Reagent was added to each well, and […] intensity was measured. A curve was fitted using GraphPad software, and the IC50 value for cell proliferation inhibition was calculated.

Sequence of PARP1 (P09874 whole entry): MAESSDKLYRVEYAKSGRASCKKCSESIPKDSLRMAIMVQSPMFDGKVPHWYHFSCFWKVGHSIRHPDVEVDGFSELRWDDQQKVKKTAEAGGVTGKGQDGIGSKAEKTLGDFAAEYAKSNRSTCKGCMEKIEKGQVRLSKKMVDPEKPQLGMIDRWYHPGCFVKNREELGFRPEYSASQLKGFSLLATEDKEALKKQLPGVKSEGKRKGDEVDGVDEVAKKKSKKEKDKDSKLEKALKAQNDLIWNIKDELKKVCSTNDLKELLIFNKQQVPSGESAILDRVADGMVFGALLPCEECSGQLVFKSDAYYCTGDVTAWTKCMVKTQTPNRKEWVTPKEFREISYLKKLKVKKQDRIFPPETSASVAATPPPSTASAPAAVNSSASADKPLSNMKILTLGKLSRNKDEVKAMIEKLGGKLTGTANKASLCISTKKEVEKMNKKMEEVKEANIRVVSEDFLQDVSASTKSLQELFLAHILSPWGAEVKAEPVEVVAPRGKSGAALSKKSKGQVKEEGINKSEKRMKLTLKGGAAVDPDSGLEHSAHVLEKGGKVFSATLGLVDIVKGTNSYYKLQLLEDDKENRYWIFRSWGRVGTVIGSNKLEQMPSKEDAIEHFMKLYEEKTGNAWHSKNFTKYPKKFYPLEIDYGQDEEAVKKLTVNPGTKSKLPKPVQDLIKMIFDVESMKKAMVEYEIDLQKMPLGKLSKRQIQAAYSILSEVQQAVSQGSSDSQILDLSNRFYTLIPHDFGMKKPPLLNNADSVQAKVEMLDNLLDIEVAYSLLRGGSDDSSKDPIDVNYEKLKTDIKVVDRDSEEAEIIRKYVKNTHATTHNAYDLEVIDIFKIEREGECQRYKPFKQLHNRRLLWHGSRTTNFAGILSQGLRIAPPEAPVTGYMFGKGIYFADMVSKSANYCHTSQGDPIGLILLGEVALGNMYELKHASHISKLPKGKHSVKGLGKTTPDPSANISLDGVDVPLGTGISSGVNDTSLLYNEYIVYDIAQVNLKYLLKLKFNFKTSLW
Sequence of PARP2 (Q9UGN5 whole entry): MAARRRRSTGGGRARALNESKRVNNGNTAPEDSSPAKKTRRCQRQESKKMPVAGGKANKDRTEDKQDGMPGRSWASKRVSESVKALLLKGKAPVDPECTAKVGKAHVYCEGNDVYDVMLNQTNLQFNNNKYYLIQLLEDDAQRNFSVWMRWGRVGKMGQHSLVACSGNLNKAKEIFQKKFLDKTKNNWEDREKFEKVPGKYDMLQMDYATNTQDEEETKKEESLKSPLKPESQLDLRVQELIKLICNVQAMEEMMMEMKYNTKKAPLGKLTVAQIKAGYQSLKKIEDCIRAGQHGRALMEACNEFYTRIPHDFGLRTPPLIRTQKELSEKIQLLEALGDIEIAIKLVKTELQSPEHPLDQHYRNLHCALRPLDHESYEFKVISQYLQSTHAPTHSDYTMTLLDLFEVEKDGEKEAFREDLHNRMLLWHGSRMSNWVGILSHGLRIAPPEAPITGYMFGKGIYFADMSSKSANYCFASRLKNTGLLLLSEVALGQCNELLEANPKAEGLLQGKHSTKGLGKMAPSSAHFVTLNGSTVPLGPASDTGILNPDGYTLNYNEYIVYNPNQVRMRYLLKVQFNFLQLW

For `CNC(=O)c1ccc(N2CCN(Cc3cc(OC(F)(F)F)c4nc(C)c(=O)[nH]c4c3)CC2)c(F)n1` [Example 17, 6-fluoro-N-methyl-5-(4-((2-methyl-3-oxo-8-(trifluoromethoxy)-3,4-dihydroquinoxalin-6-yl)methyl)piperazin-1-yl)picolinamide], the pIC50 (PARP2) was 6.77, the IC50 (PARP1) was 3.6 nM and the “Selectivity PARP2/PARP1” value (PARP1) was 46.9.
With `CNC(=O)c1ccc(N2CCN(Cc3cc(C#CC4CC4)c4nc(C)c(=O)[nH]c4c3F)CC2)c(F)n1` [Example 22, 5-(4-((8-(cyclopropylethynyl)-5-fluoro-2-methyl-3-oxo-3,4-dihydroquinoxalin-6-yl)methyl)piperazin-1-yl)-6-fluoro-N-methylpicolinamide] the pIC50 (PARP2) was < 5.00, the IC50 (PARP1) was 5.5 nM and the “Selectivity PARP2/PARP1” value (PARP1) was 1813.7. It also gave a pIC50 (DLD-1 BRCA2(-/-) cells) of 7.50.
With `CC#Cc1cc(CN2CC=C(c3ccc(C(=O)NC)nc3F)CC2)c(F)c2[nH]c(=O)c(C)nc12` [Example 23, 2-fluoro-1'-((5-fluoro-2-methyl-3-oxo-8-(prop-1-yn-1-yl)-3,4-dihydroquinoxalin-6-yl)methyl)-N-methyl-1',2',3',6'-tetrahydro-[3,4'-bipyridine]-6-carboxamide] the pIC50 (PARP2) was < 5.00, the IC50 (PARP1) was 2.4 nM and the “Selectivity PARP2/PARP1” value (PARP1) was 4113.1.
For `CNC(=O)c1ccc(C2=CCN(Cc3cc(C#CC4CC4)c4nc(C)c(=O)[nH]c4c3F)CC2)c(F)n1` [Example 24, 1'-((8-(cyclopropylethynyl)-5-fluoro-2-methyl-3-oxo-3,4-dihydroquinoxalin-6-yl)methyl)-2-fluoro-N-methyl-1',2',3',6'-tetrahydro-[3,4'-bipyridine]-6-carboxamide], the pIC50 (PARP2) was < 5.00, the IC50 (PARP1) was 10 nM and the “Selectivity PARP2/PARP1” value (PARP1) was 1004.6.
`CNC(=O)c1ccc(N2CCN(Cc3cc(Oc4ccccc4F)c4nc(C)c(=O)[nH]c4c3)CC2)c(F)n1` [Example 27, 6-fluoro-5-(4-((8-(2-fluorophenoxy)-2-methyl-3-oxo-3,4-dihydroquinoxalin-6-yl)methyl)piperazin-1-yl)-N-methylpicolinamide] was tested, and the pIC50 (PARP2) was 6.20, the IC50 (PARP1) was 2.2 nM and the “Selectivity PARP2/PARP1” value (PARP1) was 278.9.
In the case of `CNC(=O)c1ccc(N2CCN(Cc3cc(Oc4cccc(F)c4)c4nc(C)c(=O)[nH]c4c3)CC2)c(F)n1` [Example 28, 6-fluoro-5-(4-((8-(3-fluorophenoxy)-2-methyl-3-oxo-3,4-dihydroquinoxalin-6-yl)methyl)piperazin-1-yl)-N-methylpicolinamide], the pIC50 (PARP2) was 6.18, the IC50 (PARP1) was 1.8 nM and the “Selectivity PARP2/PARP1” value (PARP1) was 356.3.
In the case of `CNC(=O)c1ccc(N2CCN(Cc3cc(Oc4ccncc4)c4nc(C)c(=O)[nH]c4c3)CC2)c(F)n1` [Example 29, 6-fluoro-N-methyl-5-(4-((2-methyl-3-oxo-8-(pyridin-4-yloxy)-3,4-dihydroquinoxalin-6-yl)methyl)piperazin-1-yl)picolinamide], the pIC50 (PARP2) was 5.60, the IC50 (PARP1) was 11.5 nM and the “Selectivity PARP2/PARP1” value (PARP1) was 217.3.
With `CNC(=O)c1ccc(N2CCN(Cc3cc(C4CCCC4)c4nc(C)c(=O)[nH]c4c3)CC2)c(F)n1` [Example 31, 5-(4-((8-cyclopentyl-2-methyl-3-oxo-3,4-dihydroquinoxalin-6-yl)methyl)piperazin-1-yl)-6-fluoro-N-methylpicolinamide] the pIC50 (PARP2) was 7.34, the IC50 (PARP1) was 2.5 nM and the “Selectivity PARP2/PARP1” value (PARP1) was 18.4.
For `CNC(=O)c1ccc(N2CCN(Cc3cc(OC(C)C(F)(F)F)c4nc(C)c(=O)[nH]c4c3)CC2)c(F)n1` (stereo not drawn) [Example 34, 6-fluoro-N-methyl-5-(4-((2-methyl-3-oxo-8-((1,1,1-trifluoropropan-2-yl)oxy)-3,4-dihydroquinoxalin-6-yl)methyl)piperazin-1-yl)picolinamide], the pIC50 (PARP2) was 5.99, the IC50 (PARP1) was 2.8 nM and the “Selectivity PARP2/PARP1” value (PARP1) was 359.1.
For `CC#Cc1cc(CN2CCN(c3ccc(C#N)nc3)CC2)cc2[nH]c(=O)c(C)nc12` [Example 36, 5-(4-((2-methyl-3-oxo-8-(prop-1-yn-1-yl)-3,4-dihydroquinoxalin-6-yl)methyl)piperazin-1-yl)picolinonitrile], the pIC50 (PARP2) was 6.38, the IC50 (PARP1) was 3 nM and the “Selectivity PARP2/PARP1” value (PARP1) was 139.8.
For `CC#Cc1cc(CN2CCN(c3ccc(OC(F)F)nc3)CC2)cc2[nH]c(=O)c(C)nc12` [Example 37, 7-((4-(6-(difluoromethoxy)pyridin-3-yl)piperazin-1-yl)methyl)-3-methyl-5-(prop-1-yn-1-yl)quinoxalin-2(1H)-one], the pIC50 (PARP2) was 5.72, the IC50 (PARP1) was 12.9 nM and the “Selectivity PARP2/PARP1” value (PARP1) was 148.2.
With `CC#Cc1cc(CN2CCN(c3ccc(C(=O)NC)nc3)CC2)c(F)c2[nH]c(=O)c(C)nc12` [Example 40, 5-(4-((5-fluoro-2-methyl-3-oxo-8-(prop-1-yn-1-yl)-3,4-dihydroquinoxalin-6-yl)methyl)piperazin-1-yl)-N-methylpicolinamide] the pIC50 (PARP2) was < 5.00, the IC50 (PARP1) was 5.7 nM and the “Selectivity PARP2/PARP1” value (PARP1) was >1756.9.
Molecule `CC#Cc1cc(CN2CCN(c3ccc(C(=O)NC)nc3F)CC2)c(F)c2[nH]c(=O)c(C3CC3)nc12` [Example 48, 5-(4-((2-cyclopropyl-5-fluoro-3-oxo-8-(prop-1-yn-1-yl)-3,4-dihydroquinoxalin-6-yl)methyl)piperazin-1-yl)-6-fluoro-N-methylpicolinamide] has a pIC50 (DLD-1 BRCA2(-/-) cells) of 7.63.
In the case of `CC#Cc1cc(CN2CC=C(c3ccc(C(=O)NC)nc3)CC2)c(F)c2[nH]c(=O)c(C)nc12` [Example 50, 1'-((5-fluoro-2-methyl-3-oxo-8-(prop-1-yn-1-yl)-3,4-dihydroquinoxalin-6-yl)methyl)-N-methyl-1',2',3',6'-tetrahydro-[3,4'-bipyridine]-6-carboxamide], the pIC50 (PARP2) was < 5.00, the IC50 (PARP1) was 3.3 nM and the “Selectivity PARP2/PARP1” value (PARP1) was >3042.
With `CC#Cc1cc(CN2CC=C(c3ccc(C(=O)NC)nc3)CC2)cc2[nH]c(=O)c(C)nc12` [Example 51, N-methyl-1'-((2-methyl-3-oxo-8-(prop-1-yn-1-yl)-3,4-dihydroquinoxalin-6-yl)methyl)-1',2',3',6'-tetrahydro-[3,4'-bipyridine]-6-carboxamide] the pIC50 (PARP2) was 5.85, the IC50 (PARP1) was 7.2 nM and the “Selectivity PARP2/PARP1” value (PARP1) was 198.0.
For `CNC(=O)c1ccc(C2=CCN(Cc3cc(OC(F)F)c4nc(C)c(=O)[nH]c4c3)CC2)c(C)n1` [Example 58, 1'-((8-(difluoromethoxy)-2-methyl-3-oxo-3,4-dihydroquinoxalin-6-yl)methyl)-N,2-dimethyl-1',2',3',6'-tetrahydro-[3,4'-bipyridine]-6-carboxamide], the pIC50 (PARP2) was 5.61, the IC50 (PARP1) was 1.1 nM and the “Selectivity PARP2/PARP1” value (PARP1) was 2192.4. For the same molecule, the pIC50 (DLD-1 BRCA2(-/-) cells) was 7.87.
`CNC(=O)c1ccc(C2=CCN(Cc3cc(OC(F)F)c4nc(C)c(=O)[nH]c4c3F)CC2)c(C)n1` [Example 62, 1'-((8-(difluoromethoxy)-5-fluoro-2-methyl-3-oxo-3,4-dihydroquinoxalin-6-yl)methyl)-N,2-dimethyl-1',2',3',6'-tetrahydro-[3,4'-bipyridine]-6-carboxamide] was tested, and the pIC50 (PARP2) was < 5.00, the IC50 (PARP1) was 6.4 nM and the “Selectivity PARP2/PARP1” value (PARP1) was >1554.
For `CNC(=O)c1ccc(N2CCN(Cc3cc(OC(F)(F)F)c4nc(C)c(=O)[nH]c4c3)CC2)c(C)n1` [Example 64, N,6-dimethyl-5-(4-((2-methyl-3-oxo-8-(trifluoromethoxy)-3,4-dihydroquinoxalin-6-yl)methyl)piperazin-1-yl)picolinamide], the pIC50 (PARP2) was 6.77, the IC50 (PARP1) was 3.6 nM and the “Selectivity PARP2/PARP1” value (PARP1) was 46.9. The pIC50 (DLD-1 BRCA2(-/-) cells) was 8.01.
For `CCONC(=O)c1ccc(N2CCN(Cc3cc(OC(F)F)c4nc(C)c(=O)[nH]c4c3)CC2)c(F)n1` [Example 65, 5-(4-((8-(difluoromethoxy)-2-methyl-3-oxo-3,4-dihydroquinoxalin-6-yl)methyl)piperazin-1-yl)-N-ethoxy-6-fluoropicolinamide], the pIC50 (PARP2) was 7.10, the IC50 (PARP1) was 1.9 nM and the “Selectivity PARP2/PARP1” value (PARP1) was 42.1. For the same molecule, the pIC50 (DLD-1 BRCA2(-/-) cells) was 8.37.
With `CCNNC(=O)c1ccc(N2CCN(Cc3cc(OC(F)F)c4nc(C)c(=O)[nH]c4c3)CC2)c(F)n1` [Example 66, 5-(4-((8-(difluoromethoxy)-2-methyl-3-oxo-3,4-dihydroquinoxalin-6-yl)methyl)piperazin-1-yl)-N'-ethyl-6-fluoropicolinohydrazide] the pIC50 (PARP2) was 6.84, the IC50 (PARP1) was 2.4 nM and the “Selectivity PARP2/PARP1” value (PARP1) was 59.6. The pIC50 (DLD-1 BRCA2(-/-) cells) was 8.15.
With `CC#Cc1cc(CN2CC=C(c3ccc(C(=O)NC4CC4)nc3)CC2)c(F)c2[nH]c(=O)c(C)nc12` [Example 67, N-cyclopropyl-1'-((5-fluoro-2-methyl-3-oxo-8-(prop-1-yn-1-yl)-3,4-dihydroquinoxalin-6-yl)methyl)-1',2',3',6'-tetrahydro-[3,4'-bipyridine]-6-carboxamide] the pIC50 (PARP2) was < 5.00, the IC50 (PARP1) was 6.9 nM and the “Selectivity PARP2/PARP1” value (PARP1) was >1444.
`CNC(=O)c1ccc(N2CCN(Cc3cc(-c4cccc(OC)c4)c4nc(C)c(=O)[nH]c4c3)CC2)c(F)n1` [Example 73] was tested, and the pIC50 (PARP2) was 5.57, the IC50 (PARP1) was 5.7 nM and the “Selectivity PARP2/PARP1” value (PARP1) was 472.0.
